Source: PMC9324262, “Selective CDK9 Inhibition by Natural Compound Toyocamycin in Cancer Cells” (Cancers, 2022)
“And” between values parts separate entries of the source, which are not always exact repeats. Equal entries are not always repeated.

Tests used:
[1] = molecular target: T1, CDK9/Cyclin T1 (Homo sapiens, UniProt P50750); experiment: in vitro kinase assay CDK9/Cyclin T1 (Kinase-Glo Plus luminescence); format: biochemical
T1 construct: purchased BPS Bioscience
Experimental: The in vitro enzymatic assays were conducted at BPS Bioscience. CDK9/Cyclin T1, CDK2/Cyclin 2A, CDK4/Cyclin D3, and CDK6/Cyclin D3 enzymatic activities were tested with an ATP Kinase-Glo Plus Luminescence kinase assay kit (Promega, V6073, Madison, WI, USA), while the CDK7/Cyclin H/MAT1 activities were tested using ADP-Glo Kinase (Promega, V6930). These assays measure kinase activity by quantifying the amount of ATP or ADP remaining in solution following a kinase reaction. The luminescent signal from the assay is correlated to the amount of ATP or ADP present and is inversely correlated to the kinase activity. The compounds were diluted to 10% DMSO and were added to the reaction so that the final concentration of DMSO was 1% in all reactions. All enzymatic reactions were conducted at 30 °C for 60 min. […] After the enzymatic reaction, the luminescence signal was measured using a BioTek Synergy 2 microplate reader (Agilent, Santa Clara, CA, USA). Kinase activity assays were performed in duplicate at each concentration and the percent of kinase activity was calculated as a ratio of luminescence intensities in the absence or in presence of the compounds. […] IC50 values were determined by the concentration causing a half-maximal percent activity (BPS Bioscience, San Diego, CA, USA).

[2] = tested on: HCT116 SFRP1-GFP colon cancer cells; experiment: GFP reactivation in HCT116 SFRP1-GFP model; format: cell-based, human; settings: dose-response
Experimental: YB5 cells are derived from SW48 cells (human colon cancer cell line), and contain a single insertion of a DNA hypermethylated cytomegalovirus (CMV) promoter driving the green fluorescent protein (GFP) gene, as previously described. YB5 cells are cultured in L-15 medium supplemented with 10% fetal bovine serum and grown in log-phase in 1% CO2 atmosphere. YB5 cells were authenticated by DNA fingerprinting prior to drug screening and validation experiments. GFP expression in YB5 cells is silenced in >99.9% of the cells due to the CMV promoter DNA hypermethylation and repressive chromatin marks around the transcriptional start site. The human HCT116 colon cancer-derived GFP-reporter system, comprising a GFP gene under the control of an endogenously hypermethylated SFRP1 gene promoter, was kindly provided by Dr. Stephen Baylin (Johns Hopkins University). These cells are cultured in McCoy’s 5A medium supplemented with 10% fetal bovine serum and grown in log-phase in 5% CO2 atmosphere at 37 °C. […]
After treatment, YB5 cells were trypsinized for 15 min and resuspended in L-15 media containing propidium iodide (PI) to stain dead cells. GFP expression and PI staining were quantified by a BD LSR II flow cytometer (BD Biosciences, San Jose, CA, USA). A maximum of 10,000 cells was analyzed per well. […]

[3] = tested on: YB5 cells; experiment: RNA sequencing, differential gene expression; format: cell-based, human
Experimental: Sequenced reads were aligned to the GRCh38.100 reference genome using STAR version 2.7.5a and gene-level counts were generated by setting the “quantMode GeneCounts” flag. Differential expression analysis was performed using EdgeR version 3.32.1.. The “filterByExpr” function in EdgeR was then used to determine genes with sufficiently large counts to be included in downstream differential expression testing. The filtered count matrix was then normalized using TMM normalization and differential expression testing was performed using the “glmTreat” function with the minimal required fold-change threshold set to “log2(1)” for significant differential gene expression (FDR < 0.1).

[4] = tested on: 451-Lu-BR human melanoma cells; experiment: proliferation assay by cell counting; format: cell-based
Experimental: Proliferation assays were performed for 451-Lu-BR human melanoma cells in response to toyocamycin exposure. First, 20,000 cells were seeded per well in 24-well plates. Cells were treated with either DMSO (<0.01% final concentration) or various toyocamycin concentrations. Cell proliferation was assessed by cell counting using a hemocytometer (n = 3) after 24, 48, and 72 h of treatment. The data were plotted as the total number of cells in response to toyocamycin for each treatment duration relative to DMSO treated cells.

[5] = parameters: method as in PMID 5646857; settings: cited from earlier work

T1 sequence (P50750 whole entry): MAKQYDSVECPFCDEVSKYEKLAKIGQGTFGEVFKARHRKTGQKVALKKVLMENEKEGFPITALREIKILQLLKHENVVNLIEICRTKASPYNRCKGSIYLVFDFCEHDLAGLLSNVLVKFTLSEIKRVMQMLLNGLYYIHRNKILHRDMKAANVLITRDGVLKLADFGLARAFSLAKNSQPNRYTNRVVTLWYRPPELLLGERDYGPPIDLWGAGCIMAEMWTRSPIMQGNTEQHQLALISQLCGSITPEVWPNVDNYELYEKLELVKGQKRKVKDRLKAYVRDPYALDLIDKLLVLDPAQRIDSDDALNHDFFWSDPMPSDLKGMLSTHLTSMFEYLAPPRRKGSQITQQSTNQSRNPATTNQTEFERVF
T1 sequence (O60563 whole entry partner): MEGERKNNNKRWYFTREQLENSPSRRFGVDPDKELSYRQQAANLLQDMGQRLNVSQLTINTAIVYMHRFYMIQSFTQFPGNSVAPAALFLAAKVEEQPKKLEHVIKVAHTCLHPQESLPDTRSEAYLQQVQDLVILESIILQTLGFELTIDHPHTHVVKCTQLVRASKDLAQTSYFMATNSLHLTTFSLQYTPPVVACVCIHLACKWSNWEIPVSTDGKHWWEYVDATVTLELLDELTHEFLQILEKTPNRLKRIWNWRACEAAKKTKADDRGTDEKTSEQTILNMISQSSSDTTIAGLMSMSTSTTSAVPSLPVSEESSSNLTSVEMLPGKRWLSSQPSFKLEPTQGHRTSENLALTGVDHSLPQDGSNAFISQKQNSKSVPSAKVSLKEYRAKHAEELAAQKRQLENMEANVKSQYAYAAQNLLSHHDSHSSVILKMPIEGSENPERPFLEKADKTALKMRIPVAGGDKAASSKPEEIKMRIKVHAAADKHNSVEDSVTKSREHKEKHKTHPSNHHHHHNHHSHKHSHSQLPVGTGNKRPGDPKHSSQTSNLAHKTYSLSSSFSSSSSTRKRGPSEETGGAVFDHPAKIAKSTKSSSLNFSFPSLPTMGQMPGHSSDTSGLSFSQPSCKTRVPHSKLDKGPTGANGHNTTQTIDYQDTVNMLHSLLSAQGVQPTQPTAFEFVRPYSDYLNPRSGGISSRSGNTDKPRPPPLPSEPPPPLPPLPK

## N#Cc1cn([C@@H]2O[C@H](CO)[C@@H](O)[C@H]2O)c2ncnc(N)c12 [toyocamycin, 7-Deaza-7-cyanoadenosine]
[1]; IC50, 10 µM ATP, 30 °C, 60 min
  IC50: 79 nM and 79.5 nM
[1]; IC50, as quoted in docking section
  IC50: 80 nM
[2]
  GFP expression: induced dose-dependent GFP expression
[3]; 250 nM, 2 h
  gene downregulation: 3.5%
  number of genes downregulated: 513 genes
  number of genes upregulated: 24 genes
[3]; 250 nM, 10 h
  number of genes downregulated: 2299 genes
  number of genes upregulated: 1999 genes
[3]; 250 nM, 10 h to 96 h
  level of differentially expressed genes: up to 60%
[3]; 250 nM, 24 h
  number of genes downregulated: 3651 genes
  number of genes upregulated: 3387 genes
[3]; 250 nM, 48 h
  number of genes downregulated: 4377 genes
  number of genes upregulated: 4449 genes
[3]; 250 nM, 96 h
  number of genes downregulated: 5061 genes
  number of genes upregulated: 5050 genes
[3]; 24 h treatment
  endogenous retrovirus (ERV) expression: induced significant ERV expression
[4]; 72 h treatment
  cell proliferation: full proliferation arrest
[4]; low doses, 24 h treatment
  cell proliferation: did not reduce cell proliferation
[5]; 10–200 µg/kg for 5 days, intravenous infusion over 1–2 h, twenty-three cancer patients
  systemic toxic effects: No systemic toxic effects were observed
[5]; patients receiving the highest doses, intravenous infusion
  local toxicity: local toxicity at the site of injection (severe phlebitis)
